Reference: paper PMC4065032, “Biochemical Characterization of Quinolinic Acid Phosphoribosyltransferase from Mycobacterium tuberculosis H37Rv and Inhibition of Its Activity by Pyrazinamide” (PLoS ONE, 2014)

How the values were obtained:
hQAPRTase = conditions: cited from earlier work
SEC = target: the molecule itself; test: SEC

## O=C(O)c1cccnc1C(=O)O [QA, 2,3-pyridinedicarboxylic acid]
hQAPRTase
  Km: 22 µM
hQAPRTase; recalculated from Vmax
  kcat: 0.04 s⁻¹

B1: Quinolinic acid phosphoribosyltransferase from Mycobacterium tuberculosis H37Rv (recombinant, C-terminal 6xHis) (enzyme)
chain: MGLSDWELAAARAAIARGLDEDLRYGPDVTTLATVPASATTTASLVTREAGVVAGLDVALLTLNEVLGTNGYRVLDRVEDGARVPPGEALMTLEAQTRGLLTAERTMLNLVGHLSGIATATAAWVDAVRGTKAKIRDTRKTLPGLRALQKYAVRTGGGVNHRLGLGDAALIKDNHVAAAGSVVDALRAVRNAAPDLPCEVEVDSLEQLDAVLPEKPELILLDNFAVWQTQTAVQRRDSRAPTVMLESSGGLSLQTAATYAETGVDYLAVGALTHSVRVLDIGLDM
notes: also called MtQAPRTase; QAPRTase; not shown: His6, C-terminal, kept
SEC
  stoichiometry N: 2
